# Experimental data reported in paper PMC4267739, “Functional Characterization of Corynebacterium glutamicum Mycothiol S-Conjugate Amidase” (PLoS ONE, 2014).
# How the values were obtained:
# [1] = tested on: T1, Corynebacterium glutamicum WT(pXMJ19); experiment: microbe, parasite or virus in culture; parameters: species or system Corynebacterium glutamicum RES167 (pXMJ19); Broth dilution MIC in LB at 30 °C, serial 2-fold dilution, growth checked after 1 to 2 days; details: LB, 30 °C, wild type with empty vector pXMJ19; for MIC: Corynebacterium glutamicum, read-out: MIC (µg ml^−1) / WT(pXMJ19)
# T1 construct: RES167 wild type carrying empty vector pXMJ19
# Method: Disk diffusion assays were performed for antibiotics, alkylating agents, and oxidative agents according to Rawat et al.. Briefly, cells were grown to the mid-log phase and a lawn of cells was plated onto LB plates. After the paper disks were placed into the plates, various amounts of agents (10 µl) were added to the disk. The disks were allowed to dry and the plates were incubated for 2 to 3 days. For the minimal broth dilution assay, antibiotics were serially diluted (0.5×) in LB medium (1 ml) and cells (A 600 = 1.6) were inoculated. After 1 to 2 days of incubation at 30°C, the tubes were checked for growth. The bacteriostasis growth curve assay was used to determine the sensitivity of C. glutamicum to heavy metal stress. LB-grown strains (50 µl) were transferred to LB broth (5 ml), with and without addition of various concentrations of heavy metals (Cd^2+, Ni^2+, Cr^2+ and Cu^2+) and incubated at 30°C. The cellular growth was monitored turbidimetrically (A 600) after 24 h. All assays were performed in triplicate. First, sensitivity of C. glutamicum strains to Macrolides and β-Lactams was tested. […] These observations indicate that the Mca-dependent detoxification pathway indeed plays a major role in the detoxification of rifamycin S. However, no significant difference was found in the size of growth inhibition zones around erythromycin, lincomycin and spectinomycin (all belong to […]) between WT(pXMJ19), Δmca(pXMJ19) and the complementary strain Δmca(pXMJ19-mca) (Table 3; p>0.05). Similar trend was obtained in the MIC data (Table 4). […] Bacterial strains used in this study are listed in S1 Table. Escherichia coli and C. glutamicum strains were routinely cultured in Luria-Bertani (LB) broth or on LB plates at 37°C and 30°C, respectively. For generation of mutants and maintenance of C. glutamicum, brain heart infusion broth with 0.5 M sorbitol (BHIS) was used. The C. glutamicum RES167 strain was the parent of all derivatives used in this study. In-frame deletions were generated by the method as described previously. Cell growth was monitored by measuring absorbance at 600 nm (A 600). Antibiotics were added at the following concentrations: kanamycin, 50 µg ml^−1 for E. coli and 25 µg ml^−1 for C. glutamicum; nalidixic acid, 40 µg ml^−1 for C. glutamicum; chloramphenicol, 20 µg ml^−1 for E. coli and 10 µg ml^−1 for C. glutamicum.
# [2] = tested on: CC(=O)N[C@@H](CSCc1c(C)c(=O)n2c(=O)c(C)c(C)n12)C(=O)N[C@H]1[C@@H](O[C@@H]2[C@H](O)[C@H](O)[C@@H](O)[C@H](O)[C@H]2O)O[C@H](CO)[C@@H](O)[C@@H]1O; experiment: purified protein; details: amidase activity, 10 µM enzyme, 0-10 mM MSmB, 50 mM HEPES pH 7.5, 37°C, Table 6 prints 92.34±1.5 mM and kcat unit min^-1
# Description: fluorescamine assay of released amine, Eadie-Hofstee on C. glutamicum Mca (mycothiol S-conjugate amidase; His6-Mca)
MIC [1],Compound,also measured
128 µg/mL,CN[C@@H]1[C@H](O)[C@H](NC)[C@H]2O[C@@]3(O)C(=O)C[C@@H](C)O[C@H]3O[C@@H]2[C@H]1O [Spectinomycin],
,C. glutamicum Mca (mycothiol S-conjugate amidase; His6-Mca) (Corynebacterium glutamicum ATCC 13032),Km [2]: 92.30 ± 1.5 mM; kcat [2]: 3.56 ± 0.9 s⁻¹; kcat/Km [2]: 38.5 ± 9.6 M⁻¹ s⁻¹
> 350 µg/mL,CC1(C)S[C@@H]2[C@H](NC(=O)Cc3ccccc3)C(=O)N2[C@H]1C(=O)O [Penicillin],
7.5 µg/mL,NC[C@@H]1O[C@H](O[C@H]2[C@@H](O)[C@H](O[C@@H]3[C@@H](O)[C@H](N)C[C@H](N)[C@H]3O[C@H]3O[C@H](CN)[C@@H](O)[C@H](O)[C@H]3N)O[C@@H]2CO)[C@H](N)[C@@H](O)[C@@H]1O [Neomycin],
32 µg/mL,CN[C@H](CC(C)C)C(=O)N[C@H]1C(=O)N[C@@H](CC(N)=O)C(=O)N[C@H]2C(=O)N[C@H]3C(=O)N[C@H](C(=O)N[C@H](C(=O)O)c4cc(O)cc(O)c4-c4cc3ccc4O)[C@H](O)c3ccc(c(Cl)c3)Oc3cc2cc(c3O[C@@H]2O[C@H](CO)[C@@H](O)[C@H](O)[C@H]2O[C@H]2C[C@](C)(N)[C@H](O)[C@H](C)O2)Oc2ccc(cc2Cl)[C@H]1O [Vancomycin],
3.12 µg/mL,CN(C)[C@@H]1C(O)=C(C(N)=O)C(=O)[C@@]2(O)C(O)=C3C(=O)c4c(O)cccc4[C@@](C)(O)[C@H]3C[C@@H]12 [Tetracycline],
,CN[C@@H]1[C@H](O[C@H]2[C@H](O[C@H]3[C@H](O)[C@@H](O)[C@H](N=C(N)N)[C@@H](O)[C@@H]3N=C(N)N)O[C@@H](C)[C@]2(O)C=O)O[C@@H](CO)[C@H](O)[C@H]1O [Streptomycin],MIC (µg ml^−1) / WT(pXMJ19) ([1]; inhibitor): 1.25 ug/mL
12.5 µg/mL,CO[C@H]1/C=C/O[C@@]2(C)Oc3c(C)c(O)c4c(c3C2=O)C(=O)C=C(NC(=O)/C(C)=C\C=C\[C@H](C)[C@H](O)[C@@H](C)[C@@H](O)[C@@H](C)[C@H](OC(C)=O)[C@@H]1C)C4=O [Rifamycin S],
25 µg/mL,CC[C@H]1OC(=O)[C@H](C)[C@@H](O[C@H]2C[C@@](C)(OC)[C@@H](O)[C@H](C)O2)[C@H](C)[C@@H](O[C@@H]2O[C@H](C)C[C@H](N(C)C)[C@H]2O)[C@](C)(O)C[C@@H](C)C(=O)[C@H](C)[C@@H](O)[C@]1(C)O [Erythromycin],
1.56 µg/mL,O=C(O)c1cn(C2CC2)c2cc(N3CCNCC3)c(F)cc2c1=O [Ciprofloxacin],
62.5 µg/mL,CCC[C@@H]1C[C@@H](C(=O)N[C@@H]([C@H]2O[C@H](SC)[C@H](O)[C@@H](O)[C@H]2O)[C@@H](C)O)N(C)C1 [Lincomycin],
